According to article PMC7509555, “An In Vitro Study for Evaluating Permeability and Metabolism of Kurarinone” (Evidence-based Complementary and Alternative Medicine : eCAM, 2020):

What was measured:
primary rat hepatocytes = details: cited from earlier work
UGT1A6 = biological target: T1, UGT1A6 (Homo sapiens, UniProt P19224); experiment: Inhibition of recombinant UGT1A6-catalyzed 4-MU glucuronidation; type: in vitro ADME; details: recombinant UGT1A6, pH 7.4, probe 4-MU (110 μM), 100 μM kurarinone, recombinant UGT
T1 construct: purchased BD Gentest Corp. (Woburn, MA, USA)
T1 sequence (P19224 27-532): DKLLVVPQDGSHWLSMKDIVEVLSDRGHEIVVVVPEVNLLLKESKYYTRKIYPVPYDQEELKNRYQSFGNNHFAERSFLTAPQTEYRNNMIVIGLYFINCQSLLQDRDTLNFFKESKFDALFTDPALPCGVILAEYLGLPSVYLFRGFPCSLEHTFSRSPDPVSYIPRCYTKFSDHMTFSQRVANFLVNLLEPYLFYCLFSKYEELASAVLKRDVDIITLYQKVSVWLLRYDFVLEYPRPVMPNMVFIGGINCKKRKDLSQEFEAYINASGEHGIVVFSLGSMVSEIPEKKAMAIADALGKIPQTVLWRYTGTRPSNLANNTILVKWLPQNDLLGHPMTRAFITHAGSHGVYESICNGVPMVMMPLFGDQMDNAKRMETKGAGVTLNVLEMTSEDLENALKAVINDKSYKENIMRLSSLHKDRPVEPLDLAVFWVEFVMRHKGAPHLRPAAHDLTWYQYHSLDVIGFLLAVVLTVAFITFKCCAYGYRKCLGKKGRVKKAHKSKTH
Method: 4-MU, a nonspecific probe substrate for UGT isoforms, was used to explore the inhibition of UGT isoforms by kurarinone. The mixture (200 μL total volume) contained recombinant UGTs (final concentrations: 0.125, 0.05, 0.025, 0.05, 0.025, 0.05, 0.05, 0.25, 0.05, and 0.2 mg/mL for UGT1A1, UGT1A3, UGT1A6, UGT1A7, UGT1A8, UGT1A9, UGT1A10, UGT2B4, UGT2B7, and UGT2B15, respectively), 5 mM UDPGA, 5 mM MgCl2, 50 mM Tris-HCl buffer (pH 7.4), and 4-MU in the absence or presence of various concentrations of kurarinone. The concentrations of 4-MU were as follows: 110 μM for UGT1A1 and UGT1A6, 1200 μM for UGT1A3 and UGT2B4, 15 μM for UGT1A7, 750 μM for UGT1A8, 30 μM for UGT1A9, 80 μM for UGT1A10, 350 μM for UGT2B7, 250 μM for UGT2B15, and 2000 μM for UGT2B17. Kurarinone was dissolved in methanol, and the final concentration of methanol was 0.5% (v/v). Reactions were initiated by adding UDPGA, and incubations were carried out at 37°C in a shaking waterbath for 60 min. The reactions were terminated by addition of 200 μL of ice-cold acetonitrile containing 7-hydroxycoumarin (100 μM) as the internal standard. The incubation mixture was then centrifuged at 20,000 ×g for 20 min to obtain the supernatant, and an aliquot of supernatant (20 μL) was transferred to an autoinjector vial for HPLC analysis.

CYP1A2 = biological target: T2, CYP1A2 (Rattus norvegicus, UniProt P04799); experiment: Inhibition of CYP1A2 activity (phenacetin O-deethylation) in RLMs; type: in vitro ADME
T2 construct: tissue Research Institute for Liver Disease Co., Ltd. (Shanghai, China); host or cells: pooled rat liver microsomes
T2 sequence (P04799 2-513): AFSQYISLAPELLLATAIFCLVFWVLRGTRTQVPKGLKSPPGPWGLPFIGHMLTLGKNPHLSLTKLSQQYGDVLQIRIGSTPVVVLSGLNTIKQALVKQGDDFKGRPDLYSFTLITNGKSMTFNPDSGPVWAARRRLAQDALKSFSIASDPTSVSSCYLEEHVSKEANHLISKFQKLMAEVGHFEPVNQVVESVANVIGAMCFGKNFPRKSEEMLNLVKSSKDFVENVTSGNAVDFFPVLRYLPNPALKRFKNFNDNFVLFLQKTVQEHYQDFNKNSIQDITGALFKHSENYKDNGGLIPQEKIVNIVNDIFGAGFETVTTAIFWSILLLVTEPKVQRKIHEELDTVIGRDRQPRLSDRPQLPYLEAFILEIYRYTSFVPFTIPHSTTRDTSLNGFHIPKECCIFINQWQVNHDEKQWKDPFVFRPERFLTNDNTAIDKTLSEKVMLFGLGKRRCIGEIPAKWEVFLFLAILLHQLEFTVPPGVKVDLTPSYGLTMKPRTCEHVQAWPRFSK
Method: (§1) Samples were prepared in a total volume of 200 μL, containing 0.3 mg/mL protein in human liver microsomes or 15 nM protein in recombinant human supersomes, probe substrates or 50 μM kurarinone, 10 mM MgCl2, 10 mM glucose-6-phosphate, and 1 unit/mL of glucose-6-phosphate dehydrogenase. The reactions were activated by adding NADPH following preincubation at 37°C for 5 min. The reactions were maintained at 37°C for 1 h and terminated by adding 200 μL ice-cold acetonitrile. The supernatant (10 μL) collected from the samples that were centrifuged (20,000 g, 20 min, 4°C) was injected into the HPLC system for analysis. Control incubations devoid of NADPH or kurarinone were performed parallelly to ensure that the produced metabolites were NADPH- or kurarinone-dependent.
RLMs were used to assess the inhibitory effects of kurarinone (100 μM) on six different human isoforms (CYP1A2, CYP2C9, CYP2D6, CYP2E1, CYP3A4, and CYP2C19). The probe substrates used in this experiment were 40 μM phenacetin for CYP1A2, 10 μM diclofenac for CYP2C9, 25 μM dextromethorphan for CYP2D6, 120 μM chlorzoxazone for CYP2E1, 35 μM testosterone for CYP3A4, and 20 μM (S)-mephenytoin for […] as described earlier. The reaction system has been described in Section 2.3. […] Dixon and Lineweaver–Burk plots were formed to confirm the reversible inhibition type, and a second plot of slopes from the Lineweaver–Burk plot over the concentrations of kurarinone was used to estimate the Ki value. All incubations were performed in triplicates, and mean values were used for analysis.

[1] = tested on: human liver microsomes (HLMs); experiment: Enzyme kinetics of P1 formation from kurarinone in HLMs; type: in vitro ADME
CYP2C9 = experiment: Inhibition of CYP2C9 activity (diclofenac probe) in RLMs; type: in vitro ADME; details: rat, rat liver microsomes, probe diclofenac 10 μM, 100 μM kurarinone, 10 μM diclofenac
Method: as §1
RLMs were used to assess the inhibitory effects of kurarinone (100 μM) on six different human isoforms (CYP1A2, CYP2C9, CYP2D6, CYP2E1, CYP3A4, and CYP2C19). The probe substrates used in this experiment were 40 μM phenacetin for CYP1A2, 10 μM diclofenac for CYP2C9, 25 μM dextromethorphan for CYP2D6, 120 μM chlorzoxazone for CYP2E1, 35 μM testosterone for CYP3A4, and 20 μM (S)-mephenytoin for […] as described earlier. The reaction system has been described in Section 2.3. […]

inhibition at 60 min, 100 μM (UGT1A6): > 90%
inhibition type against CYP1A2 (CYP1A2; Dixon and Lineweaver–Burk plots): competitive
IC50 (CYP1A2; phenacetin O-deethylation, RLMs, read-out: IC50 against CYP1A2): 10 µM
inhibition at 1 h, 100 μM (CYP1A2; rat, rat liver microsomes, probe phenacetin 40 μM (O-deethylation), 100 μM kurarinone, 40 μM phenacetin, RLMs): > 90%
Ki (CYP1A2; second plot of slopes from Lineweaver–Burk plots, RLMs): 8.13 µM
Vmax of P1 formation [1]: 1.56 ± 0.24 nmol·min^−1·mg^−1 protein
Km ([1]; kurarinone 1–200 μM): 22 ± 4.93 µM
inhibition at 1 h, 100 μM (CYP2C9): > 90%
Structure (SMILES): C=C(C)[C@H](CC=C(C)C)Cc1c(O)cc(OC)c2c1O[C@H](c1ccc(O)cc1O)CC2=O [Kurarinone]
cytotoxicity (primary rat hepatocytes): remarkable cytotoxicity
